Measured values: ChEMBL document CHEMBL1144376, “Novel approach to pro-drugs of lactones: water soluble imidate and ortho-ester derivatives of a furanone-based COX-2 selective inhibitor” (Bioorg Med Chem Lett, 2005)

What was measured:
[1] = Plasma level measured at 30 min in sprague-dawley rat upon intravenous administration [dosed in PEG-400 solution]; type: ADME, organism-based; conditions: read-out: Plasma level
[2] = Plasma level of compound 2 measured at 30 min in sprague-dawley rat after 2 mg/kg intravenous administration of compound; type: ADME, organism-based; parameters: dose 2 mg/kg, route intravenous; conditions: in vivo, 0.5 h, read-out: Plasma level
[3] = Plasma level measured at 30 min in sprague-dawley rat upon intravenous administration; type: ADME; conditions: read-out: Plasma level
[4] = molecular target: Prostaglandin G/H synthase 1 (Homo sapiens, UniProt P23219); assay: Inhibitory concentration against prostaglandin G/H synthase 1 of human whole blood
Sequence of Prostaglandin G/H synthase 1 (P23219 whole entry): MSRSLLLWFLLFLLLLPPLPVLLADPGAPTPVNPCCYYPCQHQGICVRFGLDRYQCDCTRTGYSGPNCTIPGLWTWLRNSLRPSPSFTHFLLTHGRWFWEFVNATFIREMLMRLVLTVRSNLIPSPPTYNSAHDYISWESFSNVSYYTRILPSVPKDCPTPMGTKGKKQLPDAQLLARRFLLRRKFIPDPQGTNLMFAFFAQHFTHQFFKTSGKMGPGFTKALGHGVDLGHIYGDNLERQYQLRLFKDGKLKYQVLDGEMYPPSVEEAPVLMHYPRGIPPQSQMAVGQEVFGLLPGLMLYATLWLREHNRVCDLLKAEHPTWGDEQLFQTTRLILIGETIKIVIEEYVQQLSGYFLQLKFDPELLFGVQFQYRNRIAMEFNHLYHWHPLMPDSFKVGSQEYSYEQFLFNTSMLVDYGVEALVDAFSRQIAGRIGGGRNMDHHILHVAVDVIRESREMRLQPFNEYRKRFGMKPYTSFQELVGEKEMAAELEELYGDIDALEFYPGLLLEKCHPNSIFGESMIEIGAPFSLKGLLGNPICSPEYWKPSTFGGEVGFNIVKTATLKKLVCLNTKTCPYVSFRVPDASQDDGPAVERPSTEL

| SMILES | concentration [2] | further results |
| --- | --- | --- |
| CC[C@]1(C)OC2(OCC(CO)O2)C(OC(C)C)=C1c1ccc(S(C)(=O)=O)cc1 (stereo partly specified) | 2800 nM | concentration at 0.5 h [1]: 1400 nM |
| CC[C@]1(C)OC2(OCC(COP(=O)([O-])OCC[N+](C)(C)C)O2)C(OC(C)C)=C1c1ccc(S(C)(=O)=O)cc1 (stereo partly specified) | 200 nM | concentration at 0.5 h [3]: 200 nM |
| CC[C@]1(C)O/C(=N\[C@@H](CO)C(=O)O)C(OC(C)C)=C1c1ccc(S(C)(=O)=O)cc1 | < 100 nM | – |
| CC[C@]1(C)O/C(=N\OCC(=O)O)C(OC(C)C)=C1c1ccc(S(C)(=O)=O)cc1 | < 100 nM | – |
| CC[C@]1(C)OC2(OCC(C3OC(=O)C(O)=C3O)O2)C(OC(C)C)=C1c1ccc(S(C)(=O)=O)cc1 (stereo partly specified) | 100 nM | – |
| CC[C@]1(C)OC2(OCC(COC(=O)CCC(=O)[O-])O2)C(OC(C)C)=C1c1ccc(S(C)(=O)=O)cc1.[Na+] (stereo partly specified) | 400 nM | concentration at 0.5 h [3]: < 100 nM |
| CC1(O)OC(=O)C(c2ccc(Cl)cc2)=C1c1ccc(S(C)(=O)=O)cc1 (stereo unspecified) | – | IC50 [4]: > 86 µM |
| CC[C@]1(C)OC(=O)C(OC(C)C)=C1c1ccc(S(C)(=O)=O)cc1 | – | IC50 [4]: > 86 µM |
